We go through one compound from publication PMC7777204, “Locking mixed-lineage kinase domain-like protein in its auto-inhibited state prevents necroptosis” (Proceedings of the National Academy of Sciences of the …, 2020).

pIC50: −log10 of the molar value.

Test [1] deals with U937 cells. The test is described as follows: U937 apoptosis assay. It is filed as cell-based. The following applies: Homo sapiens, U-937, 100 ng/mL huTNFα plus 3 µM NSA, read-out: U937 APOP IC50. As to the method: (§1) MLKL antagonists were also evaluated in a necroptosis assay with U937 cells ([26]) (ATCC catalog no. CRL-1593.2). The assay procedure with U937 cells was as described for the Jurakt FADD^−/− necroptosis assay with the following modifications: 8,000 cells were seeded per well, and, in addition to the recombinant huTNFα, cells were also incubated in the presence of 10 µM (f.c.) carbobenzoxy-valyl-alanyl-aspartyl-[O-methyl]-fluoromethylketone (zVAD-fmk) (Enzo Life Sciences catalog no. ALX-260-020). Low controls (0% CTL) were defined as cells treated with 100 ng/mL recombinant huTNFα plus 10 µM zVAD-fmk.
Furthermore, MLKL antagonists were tested in a U937 apoptosis assay in the presence of 3 µM (f.c.) NSA (Tocris catalog no. 5025) and 100 ng/mL (f.c.) recombinant huTNFα in the same way as described for the U937 necroptosis assay. Low controls (0% CTL) were defined as cells treated with 100 ng/mL recombinant huTNFα plus 3 µM NSA.
(§2) All cellular assays were done for Cpd 1, Cpd 2, Cpd 3, Cpd 4, and Cpd 5 in duplicate and in quadruplet for NSA.

The subject of test [2] is U937 cells. In words: U937 cytotox assay. The test is classed as cell-based. Particulars: Homo sapiens, U-937, without huTNFα and zVAD-fmk, read-out: U937 TOX IC50. The method, then:
as §1
MLKL antagonists were tested in cytotox assays by using Jurkat FADD^−/− and U937 cells according to the assay procedures described for the necroptosis assays, but without treatment with recombinant huTNFα and/or zVAD-fmk. High controls (100% CTL, no effect) were defined as cells treated with DMSO, and low controls (0% CTL) were defined as medium without cells (0% CTL, maximal effect).
as §2

A further test addresses T1, MLKL executioner domain (Homo sapiens, UniProt Q8NB16).
T1 construct: 80 µM MLKL N-terminal executioner domain (residues 1 to 154) was used; GST (thrombin cleavage site) (cleaved yes)
T1 sequence (Q8NB16 1-154): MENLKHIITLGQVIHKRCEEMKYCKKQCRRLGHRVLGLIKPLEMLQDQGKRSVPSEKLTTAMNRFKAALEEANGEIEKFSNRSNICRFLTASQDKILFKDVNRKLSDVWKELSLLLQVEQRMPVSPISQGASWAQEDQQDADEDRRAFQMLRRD
The test is described as follows: Real-time NMR of MLKL oligomerization. It is filed as biochemical. Particulars: after 48 h, 50 µM IP6, 12 mM NM, 500 µM Cpd 3, 300 µM MLKL, 298 K. As to the method: While MLKL was stable in the presence of either 500 µM IP6 or 12 mM NM (SI Appendix, Fig. S13), dispersed peaks were disappearing over time in the presence of the combination of the two. Monitoring this decay by real-time NMR, a series of ^1H,^15N-correlation spectra were recorded in the presence of 12 mM NM and 50 µM IP6. The latter concentration was reduced to slow down the process to enable real-time NMR detection, because at 500 µM IP6 concentration, 86% activation could be observed in the functional assay in the ^1H,^15N-correlation spectrum measured directly after sample preparation. The loss of peak intensity can be fitted with a biexponential decay with a fast time constant (Tf) of 0.35 ± 0.07 h and a slow time constant (Ts) of 10.0 ± 1.0 h. […] In addition to the known peaks reporting on the active state with α-helix 6 being detached (Ala141 N,H and Trp133 Nε1,Hε1), peaks in the random coil region of the spectrum appeared (Fig. 4A). […] Secondary chemical shifts confirmed that α-helix 6 becomes largely unfolded and has, according to ^15N-relaxation data, increased mobility (τC = 10 ns) and reduced rigidity (heteronuclear NOE around zero) in the activated state (SI Appendix, Fig. S10).
After 48 h, these signals decayed only to ∼70% intensity. Cross-peaks reporting on the unfolded, detached α-helix 6 likewise appeared more slowly in the presence of Cpd 3 (Fig. 4 B–D). […]

One may read the pIC50 as the negative decadic logarithm of the IC50, by convention in mol/L.

`Cn1c(=O)c2c(nc(S(C)(=O)=O)n2C)n(CC#Cc2cccc(O)c2)c1=O` [Cpd 3]: the values for the pIC50 with U937 cells [1] and in the test with U937 cells [2] were below 4.00 and 4.59, respectively. Also, the “Remaining intensity of dispersed signals” value at MLKL executioner domain is given as around 70%.
